Molecular target: T1, human GPR139 (Homo sapiens, UniProt Q6DWJ6)
T1 construct: expressed in transfected cells; host or cells: CHO-TREx (Life Technologies) cells, expression induced with doxycycline
T1 sequence (Q6DWJ6 1-353): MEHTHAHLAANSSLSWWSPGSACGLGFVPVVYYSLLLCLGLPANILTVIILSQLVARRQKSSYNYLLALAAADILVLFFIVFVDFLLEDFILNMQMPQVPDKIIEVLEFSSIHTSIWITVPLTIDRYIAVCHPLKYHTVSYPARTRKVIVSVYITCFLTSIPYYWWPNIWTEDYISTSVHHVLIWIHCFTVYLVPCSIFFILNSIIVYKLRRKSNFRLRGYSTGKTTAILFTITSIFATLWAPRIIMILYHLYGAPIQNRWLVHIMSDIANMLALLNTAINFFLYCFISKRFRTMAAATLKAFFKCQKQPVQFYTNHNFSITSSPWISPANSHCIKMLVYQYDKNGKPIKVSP
Assay: Inhibition rate of the amount of IP1 in GPR139-expressed CHO cells (inverse agonist assay, Test Example 2)
Type: cell-based
Details: relative value, inhibition rate of Example Compound 2 in Test Example 1 defined as 100%; for inhibition at 30 µM: CHO
Experimental: The measurement of IP1 was made using an IP-ONE HTFR assay kit (cis-bio) and CHO-TREx (Life Technologies) cells stably transfected with GPR139. The CHO-TREx cells expressed human GPR139 with a tetracycline-inducing element. The cells were cultured in a medium containing F12K and 10% tetracycline-free FBS, and the expression of human GPR139 was induced over the course of 17 hours under conditions of 37° C. and 5% CO2 in the presence of 2 μg/mL of doxycycline (Clontech, 631311) in the growth medium on the day before assay. On the day of the test, after the cells were washed with 10 mL of PBS, the cells were detached with TrypLE Express (Life Technologies) and centrifuged at 1,000 rpm to form pellets, and a cell suspension was then prepared using a stimulation buffer (cis-bio, included in the IP-ONE HTRF assay kit).
The compound was diluted with the stimulation buffer, and 4 μL was added to a 384-well white assay plate (Greiner). The cell suspension was added so that there were 2000 cells per well, and the assay plate was left to stand for 40 minutes at 37° C. Equal amounts of IP1-d2 and Ab-Crp solutions (both available from cis-bio, included in the IP-ONE HTRF assay kit) prepared with a lysis buffer (cis-bio, included in the IP-ONE HTRF assay kit) were mixed, and 4 μL was added to the assay plate and left to stand for one hour at room temperature. After the fluorescence strengths of two wavelengths were measured by the HTRF settings of Envision (PerkinElmer), the value of Ratio={(Signal 665 nm)/(Signal 615 nm)}×10000 was calculated.
Measurement of the Inhibition Rate of the Amount of IP1 in GPR139-Expressed CHO Cells (Inverse Agonist Assay)
The activities of the compounds of Examples 1 and 3 to 167 were expressed as relative values in Table 2 by measuring the inhibition rate of the amount of IP1 with the same method as in Test Example 1 and defining the inhibition rate of the amount of IP1 of Example Compound 2 in Test Example 1 as […].

Compound | inhibition at 30 µM [%] | Inhibition Rate at 30 μM [%]
CCn1cc(Cn2cc(C)n(-c3cc(OCC4CCO4)cc(C(F)(F)F)c3)c2=O)cn1 (centres unmarked) [Example 49, 1-[(1-ethyl-1H-pyrazol-4-yl)methyl]-4-methyl-3-{3-[(oxetan-2-yl)methoxy]-5-(trifluoromethyl)phenyl}-1,3-dihydro-2H-imidazol-2-one] | 102 | –
CCn1cc(Cn2cc(C)n(-c3cc(OCC4CC4(F)F)cc(C(F)(F)F)c3)c2=O)cn1 (centres unmarked) [Example 50, 3-{3-[(2,2-difluorocyclopropyl)methoxy]-5-(trifluoromethyl)phenyl}-1-[(1-ethyl-1H-pyrazol-4-yl)methyl]-4-methyl-1,3-dihydro-2H-imidazol-2-one] | – | 102
CCn1cc(Cn2c(C)c(C)n(-c3cc(C(F)(F)F)cc(N4CCO[C@H](C)C4)n3)c2=O)cn1 [Example 60, 1-[(1-Ethyl-1H-pyrazole-4-yl)methyl]-4,5-dimethyl-3-{6-[(2R)-2-methylmorpholine-4-yl]-4-(trifluoromethyl)pyridine-2-yl}-1,3-dihydro-2H-imidazole-2-one] | 101 | –
CC(C)n1cc(Cn2ccn(-c3cc(N(C)C4CCOCC4)cc(C(F)(F)F)c3F)c2=O)cn1 [Example 61, 1-{2-fluoro-5-[methyl(oxan-4-yl)amino]-3-(trifluoromethyl)phenyl}-3-{[1-(propan-2-yl)-1H-pyrazol-4-yl]methyl}-1,3-dihydro-2H-imidazol-2-one] | 102 | –
CCn1cc(Cn2cc(C)n(-c3cc(Br)cc(OCC4CC(F)(F)C4)c3)c2=O)cn1 [Example 65, 3-{3-bromo-5-[(3,3-difluorocyclobutyl)methoxy]phenyl}-1-[(1-ethyl-1H-pyrazol-4-yl)methyl]-4-methyl-1,3-dihydro-2H-imidazol-2-one] | 98 | –
CCn1cc(Cn2cc(C)n(-c3cc(OC[C@@H]4CCCO4)cc(C(F)(F)F)c3)c2=O)cn1 [Example 66, 1-[(1-ethyl-1H-pyrazol-4-yl)methyl]-4-methyl-3-[3-{[(2S)-oxolan-2-yl]methoxy}-5-(trifluoromethyl)phenyl]-1,3-dihydro-2H-imidazol-2-one] | 99 | –
CCn1cc(Cn2cc(C)n(-c3cc(OCC4CC(F)(F)C4)cc(C4CC4)c3)c2=O)cn1 [Example 67, 3-{3-cyclopropyl-5-[(3,3-difluorocyclobutyl)methoxy]phenyl}-1-[(1-ethyl-1H-pyrazol-4-yl)methyl]-4-methyl-1,3-dihydro-2H-imidazol-2-one] | 98 | –
CCn1cc(Cn2cc(C)n(-c3cc(OCC4CC(F)(F)C4)cc(C(F)F)c3)c2=O)cn1 [Example 68, 3-{3-[(3,3-difluorocyclobutyl)methoxy]-5-(difluoromethyl)phenyl}-1-[(1-ethyl-1H-pyrazol-4-yl)methyl]-4-methyl-1,3-dihydro-2H-imidazol-2-one] | 98 | –
CCn1cc(Cn2ccn(-c3cc(OCC4CC(F)(F)C4)cc(C(F)F)c3Cl)c2=O)cn1 [Example 69, 1-{2-chloro-5-[(3,3-difluorocyclobutyl)methoxy]-3-(difluoromethyl)phenyl}-3-[(1-ethyl-1H-pyrazol-4-yl)methyl]-1,3-dihydro-2H-imidazol-2-one] | 95 | –
CCn1cc(Cn2cc(C)n(-c3cc(OCC(F)F)cc(N4CCO[C@H](C)C4)c3)c2=O)cn1 [Example 71, 3-{3-(2,2-difluoroethoxy)-5-[(2R)-2-methylmorpholin-4-yl]phenyl}-1-[(1-ethyl-1H-pyrazol-4-yl)methyl]-4-methyl-1,3-dihydro-2H-imidazol-2-one] | 98 | –

The next lines start with the values.

inhibition at 30 µM [%] | Inhibition Rate at 30 μM [%] | Compound
– | 102 | CCn1cc(Cn2cc(C)n(-c3cc(OCC4CC4(F)F)cc(C(F)(F)F)c3)c2=O)cn1 (centres unmarked) [Example 51, 3-{3-[(2,2-difluorocyclopropyl)methoxy]-5-(trifluoromethyl)phenyl}-1-[(1-ethyl-1H-pyrazol-4-yl)methyl]-4-methyl-1,3-dihydro-2H-imidazol-2-one]
99 | – | CCn1cc(Cn2cc(C)n(-c3cc(OCC4(F)CCC4)cc(C(F)(F)F)c3)c2=O)cn1 [Example 52, 1-[(1-ethyl-1H-pyrazol-4-yl)methyl]-3-{3-[(1-fluorocyclobutyl)methoxy]-5-(trifluoromethyl)phenyl}-4-methyl-1,3-dihydro-2H-imidazol-2-one]
101 | – | CCn1cc(Cn2c(C)cn(-c3cc(N(C)C4CCOCC4)cc(C(F)(F)F)c3F)c2=O)cn1 [Example 53, 3-[(1-ethyl-1H-pyrazol-4-yl)methyl]-1-{2-fluoro-5-[methyl(oxan-4-yl)amino]-3-(trifluoromethyl)phenyl}-4-methyl-1,3-dihydro-2H-imidazol-2-one]
101 | – | CCn1cc(Cn2c(C)cn(-c3cc(N4CCOC(F)(F)C4)cc(C(F)(F)F)c3F)c2=O)cn1 [Example 54, 1-[5-(2,2-difluoromorpholin-4-yl)-2-fluoro-3-(trifluoromethyl)phenyl]-3-[(1-ethyl-1H-pyrazol-4-yl)methyl]-4-methyl-1,3-dihydro-2H-imidazol-2-one]
101 | – | CCn1cc(Cn2c(C)cn(-c3cc(N4CCO[C@H](C)C4)cc(OCC(F)(F)F)c3F)c2=O)cn1 [Example 55, 3-[(1-ethyl-1H-pyrazol-4-yl)methyl]-1-{2-fluoro-5-[(2R)-2-methylmorpholin-4-yl]-3-(2,2,2-trifluoroethoxy)phenyl}-4-methyl-1,3-dihydro-2H-imidazol-2-one]
98 | – | CCn1cc(Cn2cc(C)n(-c3cc(OCC4(F)CC4)cc(C(F)(F)F)c3)c2=O)cn1 [Example 56, 1-[(1-ethyl-1H-pyrazol-4-yl)methyl]-3-{3-[(1-fluorocyclopropyl)methoxy]-5-(trifluoromethyl)phenyl}-4-methyl-1,3-dihydro-2H-imidazol-2-one]
101 | – | CCn1cc(Cn2c(C)cn(-c3cc(N4CCO[C@H](C)C4)cc(C(F)(F)F)c3Cl)c2=O)cn1 [Example 57, 1-{2-chloro-5-[(2R)-2-methylmorpholin-4-yl]-3-(trifluoromethyl)phenyl}-3-[(1-ethyl-1H-pyrazol-4-yl)methyl]-4-methyl-1,3-dihydro-2H-imidazol-2-one]
98 | – | CCn1cc(Cn2c(C)cn(-c3cc(N(C)C4CCOCC4)cc(C(F)(F)F)c3Cl)c2=O)cn1 [Example 58, 1-{2-chloro-5-[methyl(oxan-4-yl)amino]-3-(trifluoromethyl)phenyl}-3-[(1-ethyl-1H-pyrazol-4-yl)methyl]-4-methyl-1,3-dihydro-2H-imidazol-2-one]
102 | – | CCn1cc(Cn2c(C)c(C)n(-c3nc(N4CCO[C@H](C)C4)cc(C(F)(F)F)c3F)c2=O)cn1 [Example 59, 1-[(1-ethyl-1H-pyrazol-4-yl)methyl]-3-{3-fluoro-6-[(2R)-2-methylmorpholin-4-yl]-4-(trifluoromethyl)pyridin-2-yl}-4,5-dimethyl-1,3-dihydro-2H-imidazol-2-one]
99 | – | CCn1cc(Cn2c(C)cn(-c3cc(N4CCO[C@H](C)C4)cc(C(F)(F)F)c3C)c2=O)cn1 [Example 62, 3-[(1-ethyl-1H-pyrazol-4-yl)methyl]-4-methyl-1-{2-methyl-5-[(2R)-2-methylmorpholin-4-yl]-3-(trifluoromethyl)phenyl}-1,3-dihydro-2H-imidazol-2-one]
100 | – | CCn1cc(Cn2c(C)c(C)n(-c3cc(N4CCOC(F)(F)C4)cc(C(F)(F)F)c3)c2=O)cn1 [Example 63, 1-[3-(2,2-difluoromorpholin-4-yl)-5-(trifluoromethyl)phenyl]-3-[(1-ethyl-1H-pyrazol-4-yl)methyl]-4,5-dimethyl-1,3-dihydro-2H-imidazol-2-one]
98 | – | Cc1cn(-c2nc(N3CCO[C@H](C)C3)cc(C(F)(F)F)c2F)c(=O)n1Cc1cnn(C(C)C)c1 [Example 64, 1-{3-fluoro-6-[(2R)-2-methylmorpholin-4-yl]-4-(trifluoromethyl)pyridin-2-yl}-4-methyl-3-{[1-(propan-2-yl)-1H-pyrazol-4-yl]methyl}-1,3-dihydro-2H-imidazol-2-one]
100 | – | CCn1cc(Cn2c(C)c(C)n(-c3cc(N4CCOC(F)(F)C4)cc(C(F)(F)F)c3F)c2=O)cn1 [Example 70, 1-[5-(2,2-difluoromorpholin-4-yl)-2-fluoro-3-(trifluoromethyl)phenyl]-3-[(1-ethyl-1H-pyrazol-4-yl)methyl]-4,5-dimethyl-1,3-dihydro-2H-imidazol-2-one]

From patent publication US12630534B2 (TAKEDA PHARMACEUTICAL COMPANY LIMITED, priority 2020, dated 2026)
